Results taken from patent US4619942A, “Inhibition of Respiratory Syncytial virus-induced cell fusion by amidino compounds” (priority 1983, dated 1986).

Key:
RS virus [1] = tested on: RS virus
trypsin-like enzymes = conditions: relative to benzamidine; cited from earlier work
cell growth = conditions: cited from earlier work
A549 = experiment: Toxicity on A549 cells; conditions: A549 (human lung); data not shown
CV-1 = experiment: Toxicity on CV-1 cells; conditions: CV-1 (monkey kidney); data not shown
BHK-21 = experiment: Toxicity on BHK-21 cells; conditions: BHK-21 (hamster kidney); data not shown
RS virus [2] = experiment: RS virus cytopathology / syncytium formation in Hep-2 cells (Table 3); conditions: Hep-2, added 2 hour post infection

N=C(N)c1ccc(OCCCCCOc2ccc(C(=N)N)cc2)cc1 [Compound 2, Pentamidine]
Single cycle yield of RS virus (RS virus titers) (RS virus [1]): 6.3 × 10^4 TCID50/ml | Effectiveness against trypsin-like enzymes versus benzamidine (trypsin-like enzymes): generally an order of magnitude more effective than benzamidine | Concentration reducing cell growth rates (cell growth): 5 to 40 µM | Pattern of toxicity compared with Hep-2 cells (A549): identical pattern of toxicity | Pattern of toxicity compared with Hep-2 cells (CV-1): identical pattern of toxicity | Pattern of toxicity compared with Hep-2 cells (BHK-21): identical pattern of toxicity | Effect on RS virus cytopathology (syncytia) (RS virus [2]; 0.1 μM): S | Effect on RS virus cytopathology (syncytia) (RS virus [2]; 1.0 μM): S
